We go through 16 molecules from PubChem BioAssay AID248 (DTP/NCI, 2004).

“And” between values parts separate entries of the source, which are not always exact repeats. Equal entries are not always repeated. Toxic doses and inconclusive results are not listed.

The test system of the test is L1210 leukemia ip in BDF1 mice, survival T/C. In words: NCI In Vivo Anticancer Drug Screen. Data for tumor model L1210 Leukemia (intraperitoneal) in B6D2F1 (BDF1) mice. The note with it: endpoint: mean survival time, higher = longer survival. Summed up:
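Tumor cells were implanted, animals were treated, and survival was followed. The result divides the treated measurement by the vehicle-control measurement.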

Where [1] appears, read: dose: 100.0 mg/kg/injection, schedule: Q01DX009 (ip), vehicle: gum acacia.
Setting [2] is: dose: 100.0 mg/kg/injection, schedule: Q04DX003 (ip), vehicle: gum acacia.
The mark [3] stands for this setting: dose: 200.0 mg/kg/injection, schedule: Q04DX003 (ip), vehicle: gum acacia.
Where [4] appears, read: dose: 400.0 mg/kg/injection, schedule: Q04DX003 (ip), vehicle: gum acacia.
Where [5] appears, read: dose: 100.0 mg/kg/injection, schedule: Q04DX002 (ip), vehicle: Klucel (hydroxypropylcellulose) (HPC).
The mark [6] stands for this setting: dose: 200.0 mg/kg/injection, schedule: Q04DX002 (ip), vehicle: Klucel (hydroxypropylcellulose) (HPC).
[7] abbreviates: dose: 400.0 mg/kg/injection, schedule: Q04DX002 (ip), vehicle: Klucel (hydroxypropylcellulose) (HPC).
The mark [8] stands for this setting: dose: 100.0 mg/kg/injection, schedule: Q04DX003 (ip), vehicle: saline with Tween-80.
Where [9] appears, read: dose: 200.0 mg/kg/injection, schedule: Q04DX003 (ip), vehicle: saline with Tween-80.
Where [10] appears, read: dose: 50.0 mg/kg/injection, schedule: Q01DX009 (ip), vehicle: saline with Tween-80.
Setting [11] is: dose: 100.0 mg/kg/injection, schedule: Q01DX009 (ip), vehicle: saline with Tween-80.
[12] abbreviates: dose: 200.0 mg/kg/injection, schedule: Q01DX009 (ip), vehicle: saline with Tween-80.

Turning to `COc1ccc(OP(=O)(N2CC2)N2CC2)cc1`, the T/C by setting is: (dose: 75.0 mg/kg/injection, schedule: Q01DX Z (ip), vehicle: carboxymethylcellulose (CMC)) 120 % of control; (dose: 300.0 mg/kg/injection, schedule: Q01DX Z (ip), vehicle: carboxymethylcellulose (CMC)) 160 % of control.
`CN(NC(=O)CC(=O)NN(C)C(=S)c1ccc(Cl)cc1)C(=S)c1ccc(Cl)cc1`: the T/C reads like this: (dose: 25.0 mg/kg/injection, schedule: Q01DX009 (ip), vehicle: gum acacia) 96 % of control; (dose: 25.0 mg/kg/injection, schedule: Q04DX003 (ip), vehicle: gum acacia) 92 % of control; (dose: 50.0 mg/kg/injection, schedule: Q01DX009 (ip), vehicle: gum acacia) 91 % of control; (dose: 50.0 mg/kg/injection, schedule: Q04DX003 (ip), vehicle: gum acacia) 93 % of control; under setting [1], 89 % of control; under setting [2], 90 % of control. Further, the T/C is, setting by setting: under setting [3], 86 % of control; under setting [4], 92 % of control.
On to `CCOC(=O)C1CN(Cc2ccccc2)C(=O)C1=O` (stereo not given), for which the T/C is 102 % of control (dose: 50.0 mg/kg/injection, schedule: Q01DX001 (ip), vehicle: saline); 101 % of control (dose: 75.0 mg/kg/injection, schedule: Q01DX009 (ip), vehicle: saline); 102 % of control (dose: 100.0 mg/kg/injection, schedule: Q01DX001 (ip), vehicle: saline); 99 % of control (dose: 150.0 mg/kg/injection, schedule: Q01DX009 (ip), vehicle: saline); 102 % of control (dose: 200.0 mg/kg/injection, schedule: Q01DX001 (ip), vehicle: saline); 99 % of control (dose: 300.0 mg/kg/injection, schedule: Q01DX009 (ip), vehicle: saline). Further, the T/C (dose: 400.0 mg/kg/injection, schedule: Q01DX001 (ip), vehicle: saline) was 114 % of control.
Take `O=C(CC1NCCCC1O)Cn1cnc2cc3c(cc2c1=O)OCO3` (stereo not given): the T/C runs as follows: (dose: 5.0 mg/kg/injection, schedule: Q01DX009 (ip), vehicle: saline) 117 % of control; (dose: 5.0 mg/kg/injection, schedule: Q04DX003 (ip), vehicle: saline) 105 % of control; (dose: 10.0 mg/kg/injection, schedule: Q01DX009 (ip), vehicle: saline) 122 % of control; (dose: 10.0 mg/kg/injection, schedule: Q04DX003 (ip), vehicle: saline) 105 % of control; (dose: 20.0 mg/kg/injection, schedule: Q01DX009 (ip), vehicle: saline) 95 % of control; (dose: 20.0 mg/kg/injection, schedule: Q04DX003 (ip), vehicle: saline) 117 % of control.
For the molecule `CSc1nnc(N)s1`, the T/C is 91 % of control (dose: 25.0 mg/kg/injection, schedule: Q01DX009 (ip), vehicle: Klucel (hydroxypropylcellulose) (HPC)); 94 % of control (dose: 50.0 mg/kg/injection, schedule: Q01DX009 (ip), vehicle: Klucel (hydroxypropylcellulose) (HPC)); 94 % of control (dose: 100.0 mg/kg/injection, schedule: Q01DX009 (ip), vehicle: Klucel (hydroxypropylcellulose) (HPC)); 94 % of control and 91 % of control under setting [5]; 99 % of control (dose: 200.0 mg/kg/injection, schedule: Q01DX009 (ip), vehicle: Klucel (hydroxypropylcellulose) (HPC)); 97 % of control and 98 % of control under setting [6]. The T/C is, setting by setting: (dose: 400.0 mg/kg/injection, schedule: Q01DX009 (ip), vehicle: Klucel (hydroxypropylcellulose) (HPC)) 98 % of control; under setting [7], 103 % of control; (dose: 800.0 mg/kg/injection, schedule: Q04DX002 (ip), vehicle: Klucel (hydroxypropylcellulose) (HPC)) 87 % of control.
`COc1ccc2c(=O)cc(-c3ccccc3)[nH]c2c1`: the T/C is, setting by setting: (dose: 50.0 mg/kg/injection, schedule: Q04DX003 (ip), vehicle: saline) 100 % of control; (dose: 100.0 mg/kg/injection, schedule: Q01DX009 (ip), vehicle: other) 122 % of control; (dose: 100.0 mg/kg/injection, schedule: Q04DX003 (ip), vehicle: saline) 106 % of control; (dose: 200.0 mg/kg/injection, schedule: Q01DX009 (ip), vehicle: other) 123 % of control; (dose: 200.0 mg/kg/injection, schedule: Q04DX003 (ip), vehicle: saline) 101 % of control; (dose: 400.0 mg/kg/injection, schedule: Q04DX003 (ip), vehicle: saline) 104 % of control.
Consider `O=C(N/N=C\c1ccc(N(CCCl)CCCl)cc1)c1cccnc1`, for which the T/C by setting is: (dose: 12.5 mg/kg/injection, schedule: Q01DX Z (ip), vehicle: carboxymethylcellulose (CMC)) 96 % of control; (dose: 25.0 mg/kg/injection, schedule: Q01DX Z (ip), vehicle: carboxymethylcellulose (CMC)) 93 % of control and 94 % of control; (dose: 50.0 mg/kg/injection, schedule: Q01DX Z (ip), vehicle: carboxymethylcellulose (CMC)) 94 % of control and 100 % of control; (dose: 100.0 mg/kg/injection, schedule: Q01DX Z (ip), vehicle: carboxymethylcellulose (CMC)) 97 % of control and 104 % of control; (dose: 200.0 mg/kg/injection, schedule: Q01DX Z (ip), vehicle: carboxymethylcellulose (CMC)) 107 % of control and 111 % of control.
Consider `NC(=O)C1OC(CO)C(O)C1O` (stereo not given), for which the T/C was 105 % of control under setting [8]; 94 % of control under setting [9]; 94 % of control (dose: 400.0 mg/kg/injection, schedule: Q04DX003 (ip), vehicle: saline with Tween-80).
For the molecule `c1cc2c3c(c1)/C(=N\N=C1/CCN4CCCc5cccc1c54)CCN3CCC2`, the T/C is, setting by setting: under setting [10], 91 % of control; under setting [11], 89 % of control; under setting [8], 92 % of control; under setting [12], 92 % of control; under setting [9], 89 % of control.
As to `COC(C(=O)O)c1cccs1` (stereo not given), the T/C under setting [10] was 91 % of control, the T/C under setting [11] is 86 % of control and the T/C under setting [12] was 100 % of control.
Regarding `C(=Nc1ccccc1)c1ccc2c(c1)COO2`, the T/C runs as follows: (dose: 100.0 mg/kg/injection, schedule: Q04DX003 (ip), vehicle: Klucel (hydroxypropylcellulose) (HPC)) 101 % of control; (dose: 200.0 mg/kg/injection, schedule: Q04DX003 (ip), vehicle: Klucel (hydroxypropylcellulose) (HPC)) 101 % of control; (dose: 400.0 mg/kg/injection, schedule: Q04DX003 (ip), vehicle: Klucel (hydroxypropylcellulose) (HPC)) 101 % of control.
Take `CCc1ccccc1NC(=S)Nc1ccccc1`: the T/C is, setting by setting: under setting [5], 105 % of control; under setting [6], 105 % of control; under setting [7], 105 % of control.
For the molecule `CC(C)CCC(C)(C)C1=CC(=O)C=CC1=O`, the T/C runs as follows: (dose: 100.0 mg/kg/injection, schedule: Q04DX002 (ip), vehicle: saline with Tween-80) 93 % of control; (dose: 200.0 mg/kg/injection, schedule: Q04DX002 (ip), vehicle: saline with Tween-80) 90 % of control; (dose: 400.0 mg/kg/injection, schedule: Q04DX002 (ip), vehicle: saline with Tween-80) 93 % of control.
Consider `CCOC(=O)C(C)NC(=O)C(C)NC(=O)OCc1ccccc1` (stereo not given), for which the T/C is 101 % of control under setting [1]; 103 % of control under setting [2]; 93 % of control (dose: 200.0 mg/kg/injection, schedule: Q01DX009 (ip), vehicle: gum acacia); 101 % of control under setting [3]; 87 % of control (dose: 400.0 mg/kg/injection, schedule: Q01DX009 (ip), vehicle: gum acacia); 92 % of control under setting [4].
Turning to `COC1OCC2OC(C)(C)OC2C1OS(=O)(=O)c1ccc([N+](=O)[O-])cc1` (stereo not given), the T/C reads like this: (dose: 100.0 mg/kg/injection, schedule: Q01DX001 (ip), vehicle: carboxymethylcellulose (CMC)) 95 % of control; (dose: 200.0 mg/kg/injection, schedule: Q01DX001 (ip), vehicle: carboxymethylcellulose (CMC)) 95 % of control; (dose: 400.0 mg/kg/injection, schedule: Q01DX001 (ip), vehicle: carboxymethylcellulose (CMC)) 101 % of control.
As to `COc1ccc(N=Cc2ccccc2O)cc1.[Co]`, the T/C was 96 % of control (dose: 100.0 mg/kg/injection, schedule: Q01DX001 (ip), vehicle: other); 102 % of control (dose: 200.0 mg/kg/injection, schedule: Q01DX001 (ip), vehicle: other); 105 % of control (dose: 400.0 mg/kg/injection, schedule: Q01DX001 (ip), vehicle: other).
